Source: US6777411B1, “Fungicide mixtures based on pyride amides and morpholine derivatives or piperidine derivatives” (priority 1997, dated 2004)

Assays:
Puccinia recondita = experiment: Curative activity against Puccinia recondita on wheat (wheat leaf rust); format: in vivo; settings: wheat seedlings "Kanzler", sprayed 1 day after infection, evaluated after 7 days
Method: (§1) Evaluation is carried out by determining the infected leaf areas in percent. These percentages are converted into efficacies. The efficacy (W) is calculated as follows using Abbot's formula: […]
(§2) α corresponds to the fungal infection of the treated plants in % and β corresponds to the fungal infection of the untreated (control) plants in % An efficacy of 0 means that the infection level of the treated plants corresponds to that of the untreated control plants; an efficacy of 100 means that the treated plants were not infected.
(§3) Colby formula: E=x+y−x·y/100
Curative Activity Against Puccinia recondita on Wheat (Wheat Leaf Rust) Leaves of potted wheat seedlings of the variety “Kanzler” were dusted with spores of leaf rust (Puccinia recondita). […] During this time, the spores germinated and the germinal tubes penetrated into the leaf tissue. […] After the spray coating had dried on, the test plants were cultivated in a greenhouse at from 20 to 22° C. and from 65 to 70% of relative atmospheric humidity for 7 days. Thereafter, the extent of rust fungus development on the leaves was determined.

[1] = tested on: Erysiphe graminis forma specialis tritici; experiment: Activity against powdery mildew of wheat; format: in vivo; settings: wheat seedlings "Kanzler", sprayed 24 hours before inoculation, evaluated after 7 days
Method: as §1, §2, §3
Activity Against Powdery Mildew of Wheat
The test plants were subsequently kept in a greenhouse at 20 to 24° C. and 60 to 90% relative atmospheric humidity. After 7 days, the extent of the mildew development was determined visually in % infection of the total leaf area.

SMILES: O=C(Nc1ccccc1-c1ccc(Cl)cc1)c1cccnc1Cl [Compound I.2]
- Efficacy in % of the untreated control (Puccinia recondita; 16 ppm in the spray liquor): 0%
- Efficacy in % of the untreated control ([1]; 1 ppm in the spray liquor): 0%
- Efficacy in % of the untreated control ([1]; 4 ppm in the spray liquor): 0%

SMILES: CCCCCCCCCCCCCN1CC(C)OC(C)C1 (stereo not shown) [Compound IIc, tridemorph]
- Efficacy in % of the untreated control (Puccinia recondita; 63 ppm in the spray liquor): 0%
- Efficacy in % of the untreated control ([1]; 4 ppm in the spray liquor): 0%
- Efficacy in % of the untreated control ([1]; 16 ppm in the spray liquor): 20%

SMILES: O=C(Nc1ccccc1-c1ccc(F)cc1)c1cccnc1Cl [Compound I.1]
- Efficacy in % of the untreated control (Puccinia recondita; 16 ppm in the spray liquor): 0%
- Efficacy in % of the untreated control (Puccinia recondita; 63 ppm in the spray liquor): 0%
- Efficacy in % of the untreated control ([1]; 4 ppm in the spray liquor): 0%
- Efficacy in % of the untreated control ([1]; 16 ppm in the spray liquor): 0%

SMILES: CC(Cc1ccc(C(C)(C)C)cc1)CN1CCCCC1 (stereo not shown) [Compound IIb, fenpropidin]
- Efficacy in % of the untreated control (Puccinia recondita; 16 ppm in the spray liquor): 20%
- Efficacy in % of the untreated control ([1]; 1 ppm in the spray liquor): 0%
- Efficacy in % of the untreated control ([1]; 4 ppm in the spray liquor): 30%

SMILES: CC(Cc1ccc(C(C)(C)C)cc1)CN1C[C@@H](C)O[C@@H](C)C1 (stereo partly shown) [Compound IIa, fenpropimorph]
- Efficacy in % of the untreated control (Puccinia recondita; 16 ppm in the spray liquor): 20%
- Efficacy in % of the untreated control ([1]; 1 ppm in the spray liquor): 0%
- Efficacy in % of the untreated control ([1]; 4 ppm in the spray liquor): 20%
